Results taken from patent publication US8217072B2, “Salinosporamides and methods for use thereof” (The Regents of the University of California, priority 2003, dated 2012).

Tests used:
[1] = test system: Candida albicans(amphoterocin B resistant); experiment: Antifungal screening, Candida albicans (amphoterocin B resistant); format: cell-based; set-up: key: NSA = no significant activity
[2] = test system: Staphylococcus aureus (methecillin resistant); experiment: Antibacterial screening, Staphylococcus aureus; format: cell-based; set-up: key to IC50: NSA = no significant activity
[3] = test system: Enterococcus faecium (vanomycin resistant); experiment: Antibacterial screening, Enterococcus faecium; format: cell-based; set-up: key to IC50: NSA = no significant activity
[4] = Solubility in organic solvents; settings: CHCl3, methanol, and other polar solvents like DMSO, acetone, acetonitrile, benzene, pyridine, N,N-dimethylformamide

C[C@@]12OC(=O)[C@]1([C@@H](O)[C@@H]1C=CCCC1)NC(=O)[C@@H]2CCCl [Salinosporamide A]
IC50 [1]: NSA* | antibacterial activity [2]: no antibacterial activity | IC50 ([2]; methecillin resistant): NSA* | antibacterial activity [3]: no antibacterial activity | IC50 ([3]; vanomycin resistant): NSA* | solubility [4]: soluble
